Data taken from the supplement of paper PMC3493320.

System: NCI-H295R
Assay: IC50 (antiproliferative, ATP content)
Conditions: 48 h
Procedure, shortened: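 Adrenocortical carcinoma cells (1500 per well) were seeded in serum-free ITS-supplemented DMEM in 1536-well plates and cultured overnight. Library compounds were then pin-transferred at 8 final concentrations from 0.6 nM to 46 µM, and plates were kept 48 h at 37 °C, 5% CO2. ATP was read as CellTiter-Glo luminescence after 20 min at room temperature and normalised to vehicle (0%) and positive control (100% inhibition). IC50 came from four-parameter logistic fits; compounds with no concentration response were recorded as above the top dose.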

Structure (SMILES)	IC50 [µM]
CN[C@H]1C[C@@H](N)[C@H](O)[C@@H](O[C@@H]2O[C@H](CO)[C@H](O)[C@@H]3OC4(O[C@H]23)O[C@H]([C@H](N)CO)[C@H](O)[C@H](O)[C@H]4O)[C@@H]1O (stereo not given in full)	> 46
CCCCNC(=N)NC(=N)N	> 46
C[C@H](O)C(=O)Nc1c(I)c(C(=O)NC(CO)CO)c(I)c(C(=O)NC(CO)CO)c1I	> 46
CC(=O)OCC(=O)[C@@]1(OC(C)=O)[C@@H](C)C[C@H]2[C@@H]3C[C@H](F)C4=CC(=O)C=C[C@]4(C)[C@@]3(F)[C@@H](O)C[C@@]21C	> 46
NC(=O)NNc1ccccc1	> 46
CC(=O)OCC(COC(C)=O)OC(C)=O	> 46
N=C(N)NS(=O)(=O)c1ccc(N)cc1	> 46
CCCCC(CC)COC(=O)CC(C(=O)OCC(CC)CCCC)S(=O)(=O)[O-].[Na+] (stereo not given)	> 46
O=C1OC2(c3cc(Br)c([O-])cc3Oc3c2cc(Br)c([O-])[c]3[Hg][OH])c2ccccc21.[Na+].[Na+] (stereo not given)	> 46
O=C3N1/C(=C(/C)CS[C@@H]1[C@@H]3NC(=O)[C@H](N)c2ccc(O)cc2)C(O)=O	> 46
CN1CCc2c(c3ccccc3n2Cc2ccccc2)C1.CN1CCc2c(c3ccccc3n2Cc2ccccc2)C1.O=S(=O)(O)c1cccc2c(S(=O)(=O)O)cccc12	> 46
C=C[C@H]1CN2CCC1C[C@@H]2[C@@H](O)c1ccnc2ccccc12 (stereo not given in full)	> 46
CCOC(=O)/C=C(C)/C=C/C[C@@H](C)CCCC(C)C	> 46
CCOC(=S)SSC(=S)OCC	> 46
CS(=O)(=O)c1ccc([C@@H](O)[C@@H](COC(=O)CN)NC(=O)C(Cl)Cl)cc1.Cl	> 46
FCOC(C(F)(F)F)C(F)(F)F	> 46
O=C1NCN(c2ccccc2)C12CCN(CCCOc1ccc(F)cc1)CC2	> 46
NS(=O)(=O)c1cc2c(cc1Cl)NC(C(Cl)Cl)NS2(=O)=O (stereo not given)	> 46
CC1CCC(C(C)C)C(OC(=O)c2ccccc2O)C1 (stereo not given)	> 46
CCCCCCCCCCCCCCCCCCCCCC(=O)Nc1ccn([C@@H]2O[C@H](CO)[C@@H](O)[C@@H]2O)c(=O)n1	> 46
CC(=O)Nc1ccc(C=NNC(N)=S)cc1	> 46
CC12CCC(C[N+](C)(CCC[N+](C)(C)C)C1)C2(C)C.COS(=O)(=O)[O-].COS(=O)(=O)[O-] (stereo not given)	> 46
NC(=O)NC1NC(=O)NC1=O (stereo not given)	> 46
CC(=O)N[C@H]1C(O)O[C@H](CO)[C@@H](O)[C@@H]1O (stereo not given in full)	> 46
Cn1c(CCCC(=O)O)nc2cc(N(CCCl)CCCl)ccc21	> 46
COc1cc2c(cc1OC)[C@@H](c1ccccc1)CN(C)CC2.O=C(O)/C=C\C(=O)O	> 46
O=C(CN1CCNCC1)NC1CCCCC1	> 46

Structure (SMILES)	IC50 [µM]
NC(=O)OCC(O)COc1ccc(Cl)cc1 (stereo not given)	> 46
C=CCCCCCCCCC(=O)O	> 46
C[C@]12C=CC(=O)C=C1CC[C@H]1[C@@H]3C[C@@H](O)[C@](O)(C(=O)CO)[C@@]3(C)C[C@H](O)[C@@]12F	> 46
CC[C@H]1OC(=O)C[C@@H](O)[C@H](C)[C@@H](O[C@@H]2O[C@H](C)[C@@H](O)[C@H](N(C)C)[C@H]2O)[C@@H](CCN2C[C@H](C)C[C@H](C)C2)C[C@@H](C)C(=O)/C=C/C(C)=C/[C@@H]1CO[C@@H]1O[C@H](C)[C@@H](O)[C@@H](OC)[C@H]1OC	> 46
Cl.NCCc1cc(O)c(O)cc1O	> 46
O=[N+]([O-])/N=C1\NCCN1Cc1ccc(Cl)nc1	> 46
COc1ccccc1N1CCNCC1.Cl	> 46
CN1CCN(C(=O)O[C@H]2c3nccnc3C(=O)N2c2ccc(Cl)cn2)CC1	> 46
O=C(OC[C@H]1O[C@](O)(COC(=O)c2cccnc2)[C@@H](OC(=O)c2cccnc2)[C@@H]1OC(=O)c1cccnc1)c1cccnc1	> 46
O=[C@](O)[C@H](CC1)NC1=O	> 46
COC1CC(=C(c2cccs2)c2cccs2)C[N+](C)(C)C1.[Br-] (stereo not given)	> 46
O=C(C1CCCCC1)N1CC(=O)N2CCc3ccccc3C2C1 (stereo not given)	> 46
CC1(C)S[C@@H]2[C@H](NC(=O)C(N)c3ccccc3)C(=O)N2[C@H]1C(=O)OC1OC(=O)c2ccccc21.Cl (stereo not given in full)	> 46
CCOC(=O)C1=C[C@@H](OC(CC)CC)[C@H](NC(C)=O)[C@@H](N)C1.O=C(O)C(O)C(O)C(=O)O	> 46
C#C[C@]1(O)CC[C@H]2[C@@H]3CCC4=CC(=O)CC[C@@H]4[C@H]3CC[C@@]21C	> 46
O=C(O)C(Cl)(Cl)Cl	> 46
O=C(C)O[C@@](CC3)([C@](C)=O)[C@]2(C)[C@]3([H])[C@]1([H])C=C(C)C([C@@](CC4)(C)[C@]([H])1CC2)=CC4=O	> 46
CCN1CCN(c2cc3c(cc2F)c(=O)c(C(=O)O)cn3C2CC2)CC1	> 46
CN1CCC\C(C1)=C(/C2=CC=CS2)C3=CC=CS3	> 46
C1CCc2nnnn2CC1	> 46
CC(C)N(CCC(C(N)=O)(c1ccccc1)c1ccccn1)C(C)C (stereo not given)	> 46
CC(C)c1nc(N(C)S(C)(=O)=O)nc(-c2ccc(F)cc2)c1/C=C/C(O)CC(O)CC(=O)[O-].CC(C)c1nc(N(C)S(C)(=O)=O)nc(-c2ccc(F)cc2)c1/C=C/C(O)CC(O)CC(=O)[O-].[Ca+2] (stereo not given)	> 46
Cc1c(F)c(N2CCNC(C)C2)cc2c1c(=O)c(C(=O)O)cn2C1CC1.Cl (stereo not given)	> 46
Cc1ccccc1	> 46
CC(C)C(Br)C(=O)NC(N)=O (stereo not given)	> 46
C[C@]12CC[C@H](OS(=O)(=O)[O][Na])CC1=CC[C@@H]1[C@@H]2CC[C@]2(C)C(=O)CC[C@@H]12.O.O	> 46

Now from value to compound:

IC50 [µM]	Structure (SMILES)
> 46	O=C1NC(=O)C(c2ccccc2)(c2ccccc2)N1
> 46	CCN(CC)CCNC(=O)C1C(C)=NC(/C=C2/C(=O)Nc3ccc(F)cc32)=C1C.O=C(O)CC(O)C(=O)O (stereo not given)
> 46	CC(C)Cc1ccc(C(C)C(=O)O)cc1 (stereo not given)
> 46	CCCCOc1cc(C(=O)NCCN(CC)CC)c2ccccc2n1
> 46	COc1cc2c(cc1OC)C(=O)C(CC1CCN(Cc3ccccc3)CC1)C2.Cl (stereo not given)
> 46	C/C(=N\Cc1ccccc1)c1ccccc1O
> 46	O=C1c2c(O)cccc2Cc2cccc(O)c21
> 46	OCc1ccccc1
> 46	Cc1c(C(C)C)c(=O)n(-c2ccccc2)n1C
> 46	CN1C(=O)CC(c2ccccc2)C1=O (stereo not given)
> 46	CCN(CCCCOC(=O)c1ccc(OC)c(OC)c1)C(C)Cc1ccc(OC)cc1.Cl (stereo not given)
> 46	CCCCCCCCOc1ccccc1C(=O)Nc1ccc(C(=O)OCC[N+](C)(CC)CC)cc1.[Br-]
> 46	C=1(C(\C(C(=O)OC)=C(/NC=1C)C)c3c2c(non2)ccc3)C(OC(C)C)=O (stereo not given)
> 46	COc1cc(C(=O)NCc2ccc(OCCN(C)C)cc2)cc(OC)c1OC.Cl
> 46	CC(=O)Oc1cc(C(C)C)c(OCCN(C)C)cc1C.Cl
> 46	C=C1[C@H](CO)[C@@H](O)C[C@@H]1n1cnc2c(=O)[nH]c(N)nc21
> 46	COc1ccccc1N1CCN(CCCCNC(=O)c2ccc(-c3ccc(C(C)=O)cc3)cc2)CC1
> 46	Cc1cc2c(OCC(CNC(C)(C)C)OC(=O)c3ccccc3)cccc2[nH]1 (stereo not given)
> 46	OC(=O)[C@@H](C(C)C)N(Cc1ccc(cc1)c2ccccc2C\3=N\N=N/N/3)C(=O)CCCC
> 46	CN1CCC(=C2c3ccccc3CC(=O)c3sccc32)CC1
> 46	CC(C)(C)NCC(O)c1ccc(O)c(CO)c1 (stereo not given)
> 46	CCCC(=O)Nc1ncnc2c1ncn2[C@@H]1O[C@@H]2COP(=O)(O)O[C@H]2[C@H]1OC(=O)CCC
> 46	O=c1[nH]cnc2nc[nH]c12
> 46	O=C1NN=C(C2=CC=C(C=C2)N/N=C(C#N)/C#N)[C@@H](C1)C

IC50 [µM]	Structure (SMILES)
> 46	CC1CC(OC(=O)C(O)c2ccccc2)CC(C)(C)C1 (stereo not given)
> 46	O=C(O)COc1ccc(CCNS(=O)(=O)c2ccccc2)s1
> 46	O=c1oc2cc(O)ccc2s1
> 46	Cn1cc(NC(=O)c2cc(NC(=O)c3cc(NC=O)cn3C)cn2C)cc1C(=O)NCCC(=N)N
> 46	Cl.O=C(O)CC/C=C\CC[C@@H]1[C@@H](N2CCCCC2)[C@@H](O)C[C@@H]1OCc1ccc(-c2ccccc2)cc1
> 46	Cl.O=S(=O)(c1cccc2cnccc12)N1CCCNCC1
> 46	CNC(=C[N+](=O)[O-])NCCSCc1csc(CN(C)C)n1
> 46	CC(COc1ccccc1)NC(C)C(O)c1ccc(O)cc1.Cl (stereo not given)
> 46	O=C1C(CCS(=O)c2ccccc2)C(=O)N(c2ccccc2)N1c1ccccc1 (stereo not given)
> 46	C[C@](N)(Cc1ccc(O)cc1)C(=O)O
> 46	COc1ccc(C(=O)NCc2ccc(OCCN(C)C)cc2)cc1OC.Cl
> 46	CCN(CC)C(=O)/C(C#N)=C/c1cc(O)c(O)c([N+](=O)[O-])c1
> 46	CCN(CC)CCC(=O)N1c2ccccc2Sc2ccc(Cl)cc21
> 46	Cl.NCCNC(=O)c1ccc(Cl)cn1
> 46	CN(C)CC\C2=C\Nc1ccc(cc12)Cn3cncn3
> 46	CCCCCNC(=N)N/N=C/c1c[nH]c2ccc(OC)cc12
> 46	CN1CCC(Nc2ncc3ncnc(Nc4ccc(F)c(Cl)c4)c3n2)CC1.Cl.Cl
> 46	Cc1cc(NS(=O)(=O)c2ccc(N)cc2)no1
> 46	NC(=O)N1c2ccccc2CC(=O)c2ccccc21
> 46	COc1ccc(S(=O)(=O)Nc2nnc(CC(C)C)s2)cc1
> 46	CCN1C(=O)NC(c2ccccc2)C1=O (stereo not given)
> 46	O=C(OCc1ccccc1)c1ccccc1
> 46	CC1=C(CC(=O)O)c2cc(F)ccc2/C1=C\c1ccc(S(C)=O)cc1 (stereo not given)
